# Literature values, collected in article PMC9363195, “Preclinical Pharmacokinetics, Biodistribution, and Acute Toxicity Evaluation of Caerin 1.9 Peptide in Sprague Dawley Rats” (Evidence-based Complementary and Alternative Medicine : eCAM, 2022).
# Test system: TC-1 cells
# Conditions: cited from earlier work
# Excerpt: Caerin 1.1 and Caerin 1.9 are stable.
substance,measurement,setting,value
Caerin 1.1,prevention of development of TC-1 cells after heating,heated at 100°C for 5 minutes,equally effective
same,activity after incubation,"room temperature, 7 days, low pH environment (pH5.5-7)",remained active
same,bioactivity after incubation in temperature-sensitive gel,"temperature-sensitive gel, room temperature, 30 days",maintained a similar degree of bioactivity
